Earlier results as cited in patent publication US20070212428A1, “METHODS AND COMPOSITIONS FOR TREATING MOOD DISORDER” (MOOD MANAGEMENT SCIENCES, INC., priority 2004, published 2007).
Structures can show the parent of a compound that is named as a salt. Where two headings read alike, the source gives them in different places.

Columns and labels:
[1] = cited from earlier work; for time to peak plasma concentration: after oral dosing
[2] = cited from earlier work

SMILES | time to peak plasma concentration [1] | elimination half-life ([1]; plasma) | oral absorption (in words) ([1]; oral administration) | other results
CN(C)CCCC1(c2ccc(F)cc2)OCc2cc(C#N)ccc21 (racemic) [citalopram, (±)-1-[3-(dimethylamino)propyl]-1-(4-fluorophenyl)-1,3-dihydro-5-isobenzofuran carbonitrile, hydrobromide] | four | about 35 hours |  | time to steady state plasma concentrations ([1]; daily dosing): a week; increase of half life in elderly patients ([1]; elderly patients): 23-50%
NC(=O)N1c2ccccc2CC(O)c2ccccc21 (stereo not drawn) [MHD] |  |  |  | elimination half-life ([1]; human, in vivo): about 9 hours
Clc1ccc2c(c1)C(N1CCNCC1)=Nc1ccccc1O2 [amoxapine, 2-Chloro-11-(1-piperazinyl)dibenz-[b,f][1,4]oxazepine] | approximately 90 minutes |  | absorbed rapidly | 
CN(C)CCCN1c2ccccc2Sc2ccc(Cl)cc21 [chlorpromazine, 10-(3-dimethylaminopropyl)-2-chlorphenothiazine] |  | approximately 30 hours | readily absorbed | 
O=c1ccc2ccc(OCCCCN3CCN(c4cccc(Cl)c4Cl)CC3)cc2[nH]1 [dehydro-aripiprazole] |  |  |  | pharmacokinetics ([2]; lithium (1200-1800 mg/day) for 21 days with aripiprazole (30 mg/day)): did not result in clinically significant changes
CC[C@@H](C(N)=O)N1CCCC1=O [levetiracetam, (−)-(S)-α-ethyl-2-oxo-1-pyrrolidine acetamide] | about an hour | approximately 7 hours | rapidly and almost completely absorbed | reduction of clearance ([1]; moderate renal impairment): 50%; reduction of clearance ([1]; severe renal impairment): 60%
CN1CCN(C2=Nc3ccccc3Oc3ccc(Cl)cc32)CC1 [loxapine succinate, 2-Chloro-11-(4-methyl-1-piperazinyl)dibenz[b,f][1,4]oxazepine] |  |  | virtually complete | time of excretion ([1]; oral administration): mainly in the first 24 hours
CNCCCC12CCC(c3ccccc31)c1ccccc12 [maprotiline, N-Methyl-9,10-ethanoanthracene-9(10H)-propanamine] |  |  | completely absorbed | 
NC(=O)C[S+]([O-])C(c1ccccc1)c1ccccc1 (stereo not drawn) [modafinil, 2-[(diphenylmethyl)sulfinyl]acetamide] | 2 to 4 h |  | rapid | 
CCc1nn(CCCN2CCN(c3cccc(Cl)c3)CC2)c(=O)n1CCOc1ccccc1 [nefazodone, 2-[3-[4-(3-chlorophenyl)-1-piperazinyl]propyl]-5-ethyl-2,4-dihydro-4-(2-phenoxyethyl)-3H-,1,2,4-triazo-3-one monohydrochloride] |  | 2 to 4 h |  | 
CSc1ccc2c(c1)N(CCC1CCCCN1C)c1ccccc1S2 (stereo not drawn) [thioridazine, 2-methylmercapto-10-[2-(N-methyl-2-piperidyl)ethyl]phenothiazine] |  | approximately 10 hours |  | 
CC1(C)O[C@@H]2[C@@H](CO[C@@]3(COS(N)(=O)=O)OC(C)(C)O[C@@H]23)O1 [topiramate, 2,3:4,5-Di-O-isopropylidene-β-D-fructopyranose sulfamate] | approximately 2 hours |  | rapid | reduction of clearance ([1]; moderate renal impairment): 42%; time to steady state plasma concentrations ([1]; repeated dosing): about 4 days; reduction of clearance ([1]; severe renal impairment): 54%
O=c1n(CCCN2CCN(c3cccc(Cl)c3)CC2)nc2ccccn12 [trazodone, 2-[3-[4-(3-chlorophenyl)-1-piperazinyl]propyl]-1,2,4-triazolo[4,3-a]pyridin-3(2H)-one] |  |  |  | time to peak plasma levels ([1]; taken with food): two
CCCC(CCC)C(=O)O [valproate, sodium hydrogen bis(2-propylpentanoate)] |  |  |  | effect on each drug's metabolism ([2]; olanzapine co-administered with valproate): little effect
NS(=O)(=O)Cc1noc2ccccc12 [zonisamide, 1,2-benzisoxazole-3-methanesulfonamide] | 2 to 6 h | about 63 hours |  | elimination half-life in RBC ([1]; red blood cells): approximately 105 hours; time to steady state plasma concentrations ([1]; repeated dosing): ≤ 14 days
